Data on three molecules can be found in ChEMBL document CHEMBL1149581, “Colon-specific, mutual azo prodrug of 5-aminosalicylic acid with L-tryptophan: synthesis, kinetic studies and evaluation of its mitigating effect in trinitrobenzenesulfonic acid-induced colitis in rats” (Bioorg Med Chem, 2007).

Calls of active or inactive are those of the source. No cut-off for these calls is given here.

Series [1] relates to Rattus norvegicus. The series can be described thus: Ulcerogenic activity in Wistar rat at 3000 mg/kg, po by cold stress method relative to control. Type of series: toxicity, organism-based. The arrangement: dose 3000 mg/kg, route oral. The settings on record: in vivo.
Series [2] concerns Rattus norvegicus. The series can be described thus: Effect on TNBS-induced experimental colitis in po dosed Sprague-Dawely rat assessed as colon to body weight ratio after 5 days relative to control. The class given is functional.
Series [3] in a line: Partition coefficient, log P in n-octanol/phosphate buffer at pH 7.4. Type of series: physicochemical.
The subject of series [4] is Rattus norvegicus. The series can be described thus: Ulcerogenic activity in Wistar rat at 2290 mg/kg, po by cold stress method relative to control. Type of series: toxicity, organism-based. The arrangement: dose 2290 mg/kg, route oral. The note with it: in vivo.
The nature of series [5]: Aqueous solubility of the compound. Type of series: physicochemical.
The subject of series [6] is Rattus norvegicus. The series can be described thus: Effect on TNBS-induced experimental colitis in rectally dosed Sprague-Dawely rat assessed as colon to body weight ratio relative to control. Type of series: functional.
Series [7] relates to Rattus norvegicus. The series can be described thus: Ulcerogenic activity in Wistar rat at 2829 mg/kg, po by cold stress method relative to control. The class given is toxicity, organism-based. The arrangement: dose 2829 mg/kg, route oral. The settings on record: in vivo.
The subject of series [8] is Rattus norvegicus. The series can be described thus: Decrease in TNBS-induced colonic damage in po dosed Sprague-Dawely rat. Type of series: functional, organism-based.

As for `O=C(O)c1cc(/N=N/c2ccc(S(=O)(=O)Nc3ccccn3)cc2)ccc1O` [SULFASALAZINE], the UI in series [1] is 9. Also, in series [2], the Ratio worked out at 0.008.
Regarding `Nc1ccc(O)c(C(=O)O)c1` [MESALAMINE], the logD (in general, lipophilicity at a set pH, counting ionised and neutral species) in series [3] worked out at 0.64. In series [4], this molecule had a UI of 59.6.
Regarding `O=C([O-])c1cc(/N=N/C(Cc2c[nH]c3ccccc23)C(=O)[O-])ccc1O.[Na+].[Na+]` (centres undefined), the solubility (in general, how much of the substance goes into solution per volume) in series [5] was 280 mg/mL. In series [3], the logD was 0.26. In addition, the Ratio in series [6] is 0.0073. Besides, in series [7], the UI turned out to be 13. For the same molecule, the result in series [8] was Active.
